{"source": "patent US20060088545A1", "about": "“Use of inhibitors of the protease of the human immunodeficiency virus (hiv) to block cell migration and/or invasion, tissue infiltration and oedema for the therary of diseases associated therewith” (priority 2001, published 2006)", "tested_on": "angiogenesis induced by bFGF or VEGF in the chorioallantoic membrane", "experimental": "CAM assays were performed with 1 mm^3 sterilized gelatin sponges (Gelfoam; Upjohn Co, Kalamazoo, Mich.) adsorbed with bFGF or VEGF (1 μg or 100 ng, respectively) in 5 μl of PBS, and with buffer, HIV-PI (10 μM) or taxol (250 nM) (Bristol-Myers Squibb Co., Princeton, N.J.) as described (Ribatti et al, Int. J. Dev. Biol., 1996). CAM were examined daily until day 12 under an Olympus SZX9 stereomicroscope. Images (1024×1024 pixels) were captured at a distance of 2 mm from the edge of the sponge using a cooled digital CCD Hamamatsu ORCA camera (Hamamatsu Photonics Italia, Arese, Italy). Vessel number was quantified with the ImageProPlus 4.0 imaging software (Media Cybernetics, Silver Spring, Md.) in 3 randomly selected areas per egg ([…]).\nResults are expressed as the average number of vessels/mm^2±SD from the indicated number of CAM per experimental condition."}
{"smiles": "CC(=O)O[C@H]1C(=O)[C@@]2(C)[C@H]([C@H](OC(=O)c3ccccc3)[C@]3(O)C[C@H](OC(=O)[C@H](O)[C@@H](NC(=O)c4ccccc4)c4ccccc4)C(C)=C1C3(C)C)[C@]1(OC(C)=O)CO[C@@H]1C[C@@H]2O", "note": "[Taxol, taxol]", "values": [{"measurement": "Average vessel (number/mm^2 ± SD)", "setting": "bFGF 1 μg, HIV-PI 10 μM, taxol 250 nM", "value": "7.71 ± 1.63", "unit": "number/mm^2"}, {"measurement": "basal CAM vascularization", "setting": "drug administered alone", "value": "did not affect"}, {"measurement": "toxicity in CAM", "setting": "in vivo", "value": "not associated with toxicity"}]}
